Results: the NIST ThermoML archive (doi:10.1021/je700290j)

Experiments:
[1] = for surface tension liquid-gas: Ring tensiometer; for mass density / viscosity / speed of sound: 101 kPa, Liquid; for speed of sound: Sing-around technique in a fixed-path interferometer
[2] = xn = mol fraction of the nth substance listed; settings: 293.15 K; for surface tension liquid-gas: Ring tensiometer; for speed of sound / mass density / viscosity: 101 kPa, Liquid; for speed of sound: Sing-around technique in a fixed-path interferometer

C1CCNCC1 [piperidine]
[1]
Settings | mass density [kg/m3] | speed of sound [m/s] | surface tension liquid-gas [mN/m] | viscosity [mPa·s]
293.15 K | 859.87 | 1389.4 | 30.27 | 0.8207
298.15 K | – | – | 29.56 | –

C1CCNCC1 [piperidine] + C1CCNC1
[2], x1 = 1
Settings | mass density [kg/m3] | speed of sound [m/s] | surface tension liquid-gas [mN/m] | viscosity [mPa·s]
– | 859.87 | 1389.4 | 30.27 | 0.8207

C1CCNC1 [pyrrolidine]
[1]
Settings | mass density [kg/m3] | speed of sound [m/s] | surface tension liquid-gas [mN/m] | viscosity [mPa·s]
293.15 K | 863.81 | 1384.4 | 30.11 | 1.551
298.15 K | – | – | 29.75 | –

C1CCNC1 [pyrrolidine] + C1CCNCC1
[2]
Settings | mass density [kg/m3] | speed of sound [m/s] | surface tension liquid-gas [mN/m] | viscosity [mPa·s]
x2 = 0 | 863.81 | 1384.4 | 30.11 | 1.551
x2 = 0.1043 | 863.61 | 1385.4 | 30.36 | 1.457
x2 = 0.2304 | 863.4 | 1386.3 | 30.61 | 1.364
x2 = 0.496 | 862.79 | 1388.2 | 30.56 | 1.201
x2 = 0.6423 | 862.19 | 1390.1 | 30.51 | 1.038
x2 = 0.7053 | 861.89 | 1390.8 | 30.47 | 0.9752
x2 = 0.8273 | 861.6 | 1391.5 | 30.42 | 0.9124
